This experiment deals with MV-4-11 cells. Briefly: Gene expression microarray analysis (Affymetrix PrimeView) and GSEA. The following applies: MV-4-11 cells, 48 hours. Details: RFU PODN (11730768_x_at) / Fold change /veh PODN (11730768_x_at) / RFU LINC00158 (11744669_a_at) / Fold change /veh LINC00158 (11744669_a_at) / RFU DUSP10 (11751237_a_at) / Fold change /veh DUSP10 (11751237_a_at) / RFU ID3 (11757404_x_at) / Fold change /veh ID3 (11757404_x_at) / RFU PLEKHG5 (11737974_s_at) / Fold change /veh PLEKHG5 (11737974_s_at) / RFU LRRC4B (11730491_at) / Fold change /veh LRRC4B (11730491_at) / RFU GIMAP4 (11747438_a_at) / Fold change /veh GIMAP4 (11747438_a_at) / RFU KRT8 (11758183_x_at) / Fold change /veh KRT8 (11758183_x_at) / RFU CNN1 (11734310_a_at) / Fold change /veh CNN1 (11734310_a_at) / RFU VPS37D (11726825_at) / Fold change /veh VPS37D (11726825_at) / RFU C10orf10 (11716522_x_at) / Fold change /veh C10orf10 (11716522_x_at) / RFU KIR2DL2 /// KIR2DL4 /// KIR2DL5A /// KIR2DL5B /// KIR2DS1 /// KIR2DS2 /// KIR2DS3 /// KIR2DS4 /// KIR3DL3 /// KIR3DL3 /// KIR3DS1 (11738374_at) / Fold change /veh KIR2DL2 /// KIR2DL4 /// KIR2DL5A /// KIR2DL5B /// KIR2DS1 /// KIR2DS2 /// KIR2DS3 /// KIR2DS4 /// KIR3DL3 /// KIR3DL3 /// KIR3DS1 (11738374_at) / RFU C1QL1 (11718748_at) / Fold change /veh C1QL1 (11718748_at) / RFU TMPRSS4 (11747572_a_at) / Fold change /veh TMPRSS4 (11747572_a_at) / RFU HAMP (11756126_x_at) / Fold change /veh HAMP (11756126_x_at) / RFU RNFT2 (11725882_a_at) / Fold change /veh RNFT2 (11725882_a_at) / RFU NR4A2 (11747474_a_at) / Fold change /veh NR4A2 (11747474_a_at) / RFU ABCC12 (11746883_a_at) / Fold change /veh ABCC12 (11746883_a_at) / RFU TMEM136 (11760407_x_at) / Fold change /veh TMEM136 (11760407_x_at) / RFU CLDN22 /// WWC2 (11732394_at) / Fold change /veh CLDN22 /// WWC2 (11732394_at) / RFU HLA-DPB1 (11760878_x_at) / Fold change /veh HLA-DPB1 (11760878_x_at) / RFU SPINT1 (11716480_a_at) / Fold change /veh SPINT1 (11716480_a_at) / RFU GAP43 (11754022_s_at) / Fold change /veh GAP43 (11754022_s_at) / RFU A4GNT (11735810_at) / Fold change /veh A4GNT (11735810_at) / RFU PRB3 (11715151_x_at) / Fold change /veh PRB3 (11715151_x_at) / RFU TUBB4B (11761932_at) / Fold change /veh TUBB4B (11761932_at) / RFU CAPN14 (11732068_a_at) / Fold change /veh CAPN14 (11732068_a_at) / RFU TMCC2 (11721928_a_at) / Fold change /veh TMCC2 (11721928_a_at) / RFU IRGQ (11745062_a_at) / Fold change /veh IRGQ (11745062_a_at) / RFU FAM174B (11720279_a_at) / Fold change /veh FAM174B (11720279_a_at) / RFU TMPRSS4 (11748680_a_at) / Fold change /veh TMPRSS4 (11748680_a_at) / RFU FAM212B (11763350_a_at) / Fold change /veh FAM212B (11763350_a_at) / RFU PLEKHG5 (11743358_a_at) / Fold change /veh PLEKHG5 (11743358_a_at) / RFU ZSCAN30 (11745921_a_at) / Fold change /veh ZSCAN30 (11745921_a_at) / RFU CMKLR1 (11741424_a_at) / Fold change /veh CMKLR1 (11741424_a_at) / RFU LOC101060620 /// MAPK8IP1 (11723275_at) / Fold change /veh LOC101060620 /// MAPK8IP1 (11723275_at) / RFU SPTSSB (11747773_x_at) / Fold change /veh SPTSSB (11747773_x_at) / RFU PRSS12 (11739890_at) / Fold change /veh PRSS12 (11739890_at) / RFU BIN1 (11741810_x_at) / Fold change /veh BIN1 (11741810_x_at) / RFU WNT11 (11732464_a_at) / Fold change /veh WNT11 (11732464_a_at) / RFU C10orf10 (11716521_a_at) / Fold change /veh C10orf10 (11716521_a_at) / RFU C5orf56 (11738089_at) / Fold change /veh C5orf56 (11738089_at) / RFU CYB561 (11721691_x_at) / Fold change /veh CYB561 (11721691_x_at) / RFU ANKRD19P (11752326_a_at) / Fold change /veh ANKRD19P (11752326_a_at) / RFU OR2T12 /// OR2T33 /// OR2T8 (11738714_s_at) / Fold change /veh OR2T12 /// OR2T33 /// OR2T8 (11738714_s_at) / RFU VCAN (11748164_a_at) / Fold change /veh VCAN (11748164_a_at) / RFU JSRP1 (11732532_at) / Fold change /veh JSRP1 (11732532_at) / RFU KRTAP10-11 (11738290_x_at) / Fold change /veh KRTAP10-11 (11738290_x_at) / RFU MYO3A (11730013_a_at) / Fold change /veh MYO3A (11730013_a_at) / RFU EBF3 (11725865_a_at) / Fold change /veh EBF3 (11725865_a_at) / RFU CAMK2N1 (11719241_x_at) / Fold change /veh CAMK2N1 (11719241_x_at) / RFU C5orf56 (11738088_a_at) / Fold change /veh C5orf56 (11738088_a_at) / RFU OLFML3 (11715873_a_at) / Fold change /veh OLFML3 (11715873_a_at) / RFU LOC100653217 /// NTM (11731650_a_at) / Fold change /veh LOC100653217 /// NTM (11731650_a_at) / RFU MAPK11 (11762145_a_at) / Fold change /veh MAPK11 (11762145_a_at) / RFU FIZ1 (11724087_x_at) / Fold change /veh FIZ1 (11724087_x_at) / RFU OASL (11726364_x_at) / Fold change /veh OASL (11726364_x_at) / RFU SOX15 (11748057_x_at) / Fold change /veh SOX15 (11748057_x_at) / RFU CD79A (11719716_a_at) / Fold change /veh CD79A (11719716_a_at) / RFU HIST1H1D (11736915_at) / Fold change /veh HIST1H1D (11736915_at) / RFU CASKIN2 (11723855_a_at) / Fold change /veh CASKIN2 (11723855_a_at) / RFU LOC730098 (11760151_x_at) / Fold change /veh LOC730098 (11760151_x_at) / RFU OR4N2 (11742367_at) / Fold change /veh OR4N2 (11742367_at) / RFU PRRT2 (11749266_a_at) / Fold change /veh PRRT2 (11749266_a_at) / RFU SNX32 (11753110_a_at) / Fold change /veh SNX32 (11753110_a_at) / RFU CDHR5 (11726645_a_at) / Fold change /veh CDHR5 (11726645_a_at) / RFU RCAN1 (11760418_a_at) / Fold change /veh RCAN1 (11760418_a_at) / RFU FAM167A (11723789_a_at) / Fold change /veh FAM167A (11723789_a_at) / RFU FAM26E (11764081_at) / Fold change /veh FAM26E (11764081_at) / RFU ISYNA1 (11749810_s_at) / Fold change /veh ISYNA1 (11749810_s_at) / RFU ACY1 (11761880_at) / Fold change /veh ACY1 (11761880_at) / RFU 11764098_at / Fold change /veh 11764098_at / RFU SAMD14 (11745864_x_at) / Fold change /veh SAMD14 (11745864_x_at) / RFU NPB (11741838_a_at) / Fold change /veh NPB (11741838_a_at) / RFU TMPRSS6 (11731388_a_at) / Fold change /veh TMPRSS6 (11731388_a_at) / RFU KRTAP10-2 (11738614_at) / Fold change /veh KRTAP10-2 (11738614_at) / RFU ARHGAP8 /// PRR5-ARHGAP8 (11727945_x_at) / Fold change /veh ARHGAP8 /// PRR5-ARHGAP8 (11727945_x_at) / RFU KRTAP5-7 /// NADSYN1 (11734609_at) / Fold change /veh KRTAP5-7 /// NADSYN1 (11734609_at) / RFU RASL12 (11751679_a_at) / Fold change /veh RASL12 (11751679_a_at) / RFU CDKN2B (11736163_a_at) / Fold change /veh CDKN2B (11736163_a_at) / RFU PRF1 (11729649_at) / Fold change /veh PRF1 (11729649_at) / RFU, ZNF638 /// ZNF638-IT1 / Fold change vs veh, ZNF638 /// ZNF638-IT1 / RFU, PANK3 / Fold change vs veh, PANK3 / RFU, SH3YL1 / Fold change vs veh, SH3YL1 / RFU, ZEB2 / Fold change vs veh, ZEB2 / RFU, NRIP1 / Fold change vs veh, NRIP1 / RFU, PTTG1IP / Fold change vs veh, PTTG1IP / RFU, CAPN2 / Fold change vs veh, CAPN2 / RFU, MED14 / Fold change vs veh, MED14 / RFU, SNORA58 / Fold change vs veh, SNORA58 / RFU, C1orf63 / Fold change vs veh, C1orf63 / RFU, LRRFIP1 / Fold change vs veh, LRRFIP1 / RFU, NDUFAF7 / Fold change vs veh, NDUFAF7 / RFU, SLC12A2 / Fold change vs veh, SLC12A2 / RFU, IBTK / Fold change vs veh, IBTK / RFU, ESF1 / Fold change vs veh, ESF1 / Fold change vs veh, TMEM50B / RFU, TAOK1 / Fold change vs veh, TAOK1 / RFU, ACBD3 / Fold change vs veh, ACBD3 / RFU, TMA16 / Fold change vs veh, TMA16 / RFU, RWDD3 / Fold change vs veh, RWDD3 / RFU, BCAT1 / Fold change vs veh, BCAT1 / RFU, EDEM3 / Fold change vs veh, EDEM3 / RFU, TMEM33 / Fold change vs veh, TMEM33 / RFU, WDR75 / Fold change vs veh, WDR75 / RFU, AHCTF1 / Fold change vs veh, AHCTF1 / RFU, TFRC / Fold change vs veh, TFRC / RFU, ZDHHC17 / Fold change vs veh, ZDHHC17 / RFU, NOM1 / Fold change vs veh, NOM1 / RFU, ARL8B / Fold change vs veh, ARL8B / RFU, ZBTB11 / Fold change vs veh, ZBTB11 / RFU, TAMM41 / Fold change vs veh, TAMM41 / RFU, KIAA1704 /// LOC100996395 / Fold change vs veh, KIAA1704 /// LOC100996395 / RFU, ING1 / Fold change vs veh, ING1 / RFU, TRMT61B / Fold change vs veh, TRMT61B / RFU, FUBP3 / Fold change vs veh, FUBP3 / RFU, TP53 / Fold change vs veh, TP53 / RFU, TNKS2 / Fold change vs veh, TNKS2 / RFU, ZFP14 / Fold change vs veh, ZFP14 / RFU, ACTR2 / Fold change vs veh, ACTR2 / RFU, PPP3R1 / Fold change vs veh, PPP3R1 / RFU, PIK3R1 / Fold change vs veh, PIK3R1 / RFU, HNRNPA1 / Fold change vs veh, HNRNPA1 / RFU, RNF170 / Fold change vs veh, RNF170 / RFU, ZNF28 / Fold change vs veh, ZNF28 / RFU, RNGTT / Fold change vs veh, RNGTT / RFU, OGT / Fold change vs veh, OGT / RFU, BRD1 / Fold change vs veh, BRD1 / RFU, MARS / Fold change vs veh, MARS / RFU, ZNF655 / Fold change vs veh, ZNF655 / RFU, FAHD1 / Fold change vs veh, FAHD1 / RFU, BDP1 / Fold change vs veh, BDP1 / RFU, LRRCC1 / Fold change vs veh, LRRCC1 / RFU, ARID1A / Fold change vs veh, ARID1A / RFU, ZNF146 / Fold change vs veh, ZNF146 / RFU, ZNF330 / Fold change vs veh, ZNF330 / RFU, GPN3 / Fold change vs veh, GPN3 / RFU, C9orf123 / Fold change vs veh, C9orf123 / RFU, N4BP2L2 / Fold change vs veh, N4BP2L2 / RFU, ARFIP1 / Fold change vs veh, ARFIP1 / RFU, FAM179B / Fold change vs veh, FAM179B / RFU, BCL10 / Fold change vs veh, BCL10 / RFU, UHRF1BP1L / Fold change vs veh, UHRF1BP1L / RFU, BET1 / Fold change vs veh, BET1 / RFU, CNOT2 / Fold change vs veh, CNOT2 / RFU, ZNF268 / Fold change vs veh, ZNF268 / Fold change vs veh, ZNF507 / RFU, DGCR2 / Fold change vs veh, DGCR2 / RFU, WDSUB1 / Fold change vs veh, WDSUB1 / Fold change vs veh, HSP90B1 /// MIR3652 / RFU, ADSS / Fold change vs veh, ADSS / RFU, GK / Fold change vs veh, GK / RFU, ZNF148 / Fold change vs veh, ZNF148 / RFU, TAF9 / Fold change vs veh, TAF9 / RFU, SLC1A5 / Fold change vs veh, SLC1A5 / RFU, SLMO2 / Fold change vs veh, SLMO2 / RFU, ABCC4 / Fold change vs veh, ABCC4 / RFU, LOC101060439 /// RAP1B / Fold change vs veh, LOC101060439 /// RAP1B / RFU, RFX7 / Fold change vs veh, RFX7 / RFU, GTPBP10 / Fold change vs veh, GTPBP10 / RFU, CNEP1R1 / Fold change vs veh, CNEP1R1 / RFU, BIVM-ERCC5 /// ERCC5 / Fold change vs veh, BIVM-ERCC5 /// ERCC5 / RFU, ILF3 / Fold change vs veh, ILF3 / RFU 11762660_at / Fold change /veh 11762660_at / RFU VCAN (11757783_s_at) / Fold change /veh VCAN (11757783_s_at) / RFU DDX43 (11728927_at) / Fold change /veh DDX43 (11728927_at) / RFU KRT8 (11758188_x_at) / Fold change /veh KRT8 (11758188_x_at) / RFU NKD1 (11759106_at) / Fold change /veh NKD1 (11759106_at) / RFU SRD5A1 (11742802_a_at) / Fold change /veh SRD5A1 (11742802_a_at) / RFU TPSAB1 /// TPSB2 (11721975_s_at) / Fold change /veh TPSAB1 /// TPSB2 (11721975_s_at) / RFU GSTM3 (11746129_a_at) / Fold change /veh GSTM3 (11746129_a_at) / RFU IL23R (11737362_x_at) / Fold change /veh IL23R (11737362_x_at) / RFU TMEM51 (11727254_a_at) / Fold change /veh TMEM51 (11727254_a_at) / RFU PIWIL2 (11732686_x_at) / Fold change /veh PIWIL2 (11732686_x_at) / RFU ORM1 (11744905_x_at) / Fold change /veh ORM1 (11744905_x_at) / RFU CCDC152 (11743942_at) / Fold change /veh CCDC152 (11743942_at) / RFU ECM1 (11717891_a_at) / Fold change /veh ECM1 (11717891_a_at) / RFU IL23R (11748794_a_at) / Fold change /veh IL23R (11748794_a_at) / RFU TNFAIP8L3 (11732012_x_at) / Fold change /veh TNFAIP8L3 (11732012_x_at) / RFU MBOAT4 (11741988_at) / Fold change /veh MBOAT4 (11741988_at) / RFU 11764193_at / Fold change /veh 11764193_at / RFU TMEM53 (11763286_at) / Fold change /veh TMEM53 (11763286_at) / RFU MAGEB2 (11727129_at) / Fold change /veh MAGEB2 (11727129_at) / RFU TMEM200A (11744735_a_at) / Fold change /veh TMEM200A (11744735_a_at) / RFU CCDC152 (11751479_a_at) / Fold change /veh CCDC152 (11751479_a_at) / RFU FAM211A (11726209_a_at) / Fold change /veh FAM211A (11726209_a_at) / RFU RGS16 (11746705_a_at) / Fold change /veh RGS16 (11746705_a_at) / RFU VCAN (11755009_s_at) / Fold change /veh VCAN (11755009_s_at) / RFU RHOB (11743442_s_at) / Fold change /veh RHOB (11743442_s_at) / RFU RGS16 (11720943_a_at) / Fold change /veh RGS16 (11720943_a_at) / RFU RGS16 (11720944_at) / Fold change /veh RGS16 (11720944_at) / RFU, VPS4B / Fold change vs veh, VPS4B / RFU, CREB1 / Fold change vs veh, CREB1 / RFU, DNAJC13 / Fold change vs veh, DNAJC13 / RFU, GNAQ / Fold change vs veh, GNAQ / RFU, CDK5R1 / Fold change vs veh, CDK5R1 / RFU, ZRANB3 / Fold change vs veh, ZRANB3 / RFU, CUL4A / Fold change vs veh, CUL4A / RFU, CCNY / Fold change vs veh, CCNY / RFU, UFL1 / Fold change vs veh, UFL1 / RFU, COG3 / Fold change vs veh, COG3 / RFU, DIAPH2 / Fold change vs veh, DIAPH2 / RFU, SKA2 / Fold change vs veh, SKA2 / RFU, AFF3 / Fold change vs veh, AFF3 / RFU, LMF1 / Fold change vs veh, LMF1 / RFU, IPO11 / Fold change vs veh, IPO11 / RFU, DFFB / Fold change vs veh, DFFB / RFU, FOXP1 / Fold change vs veh, FOXP1 / RFU, CARD8 / Fold change vs veh, CARD8 / RFU, STRN3 / Fold change vs veh, STRN3 / RFU, ADK / Fold change vs veh, ADK / RFU, RASSF2 / Fold change vs veh, RASSF2 / RFU, WIPF1 / Fold change vs veh, WIPF1 / RFU, LARP1B / Fold change vs veh, LARP1B / RFU, RASA1 / Fold change vs veh, RASA1 / RFU, RB1 / Fold change vs veh, RB1 / RFU, PPFIA1 / Fold change vs veh, PPFIA1 / RFU, MAT2A / Fold change vs veh, MAT2A / RFU, CCT5 / Fold change vs veh, CCT5 / RFU, WDR92 / Fold change vs veh, WDR92 / RFU, CUX1 / Fold change vs veh, CUX1 / RFU, TTC7A / Fold change vs veh, TTC7A / RFU, TMEM135 / Fold change vs veh, TMEM135 / RFU, DEPTOR / Fold change vs veh, DEPTOR / RFU, CPM / Fold change vs veh, CPM / RFU, DNAJB6 / Fold change vs veh, DNAJB6 / RFU, CACNA2D3 / Fold change vs veh, CACNA2D3 / RFU, DTX4 / Fold change vs veh, DTX4 / RFU, TFCP2 / Fold change vs veh, TFCP2 / RFU, GMCL1 /// GMCL1P1 / Fold change vs veh, GMCL1 /// GMCL1P1 / RFU, AEBP2 / Fold change vs veh, AEBP2 / RFU, SNHG1 /// SNORD22 /// SNORD25 /// SNORD26 /// SNORD27 /// SNORD28 /// SNORD29 /// SNORD31 / Fold change vs veh, SNHG1 /// SNORD22 /// SNORD25 /// SNORD26 /// SNORD27 /// SNORD28 /// SNORD29 /// SNORD31 / Fold change (Aza/veh), C12orf56 (ProbeSet 11735607_a_at) / Fold change (ACY-1035/veh), C12orf56 (ProbeSet 11735607_a_at) / Fold change (Aza/veh), FGFR1OP (ProbeSet 11751329_s_at) / Fold change (ACY-1035/veh), FGFR1OP (ProbeSet 11751329_s_at) / Fold change (Aza/veh), VPS36 (ProbeSet 11739960_a_at) / Fold change (ACY-1035/veh), VPS36 (ProbeSet 11739960_a_at) / RFU SYPL1 (11715823_x_at) / Fold change /veh SYPL1 (11715823_x_at) / RFU IGFBP7 (11715501_s_at) / Fold change /veh IGFBP7 (11715501_s_at) / RFU REEP3 (11722064_at) / Fold change /veh REEP3 (11722064_at) / RFU IGLL1 (11728026_x_at) / Fold change /veh IGLL1 (11728026_x_at): dose or concentration left out as unconfirmed. Format: cell-based, human.

On to `Nc1ncn([C@@H]2O[C@H](CO)[C@@H](O)[C@H]2O)c(=O)n1` [azacitidine], for which the “RFU RGS16 (11720944_at)” value is reported as 63.78 RFU.

The values above are taken from article PMC5218480 (PLoS ONE, 2017).
